Laboratory results taken from ChEMBL document CHEMBL1157248, “Polar steroidal compounds from the far eastern starfish Henricia leviuscula” (J Nat Prod, 2006).

What was measured:
Type in all cases: cell-based, Erythrocyte
[1] = Toxicity in mouse erythrocytes assessed as hemolysis
[2] = Toxicity in mouse erythrocytes assessed as hemolysis at 0.08 mM during 5 mins; conditions: read-out: Activity
[3] = Toxicity in mouse erythrocytes assessed as hemolysis at 0.1 mM during 5 mins

Structure (SMILES) | HC50 [1] [µM] | hemolysis at 5 min, 80 µM [2] [%] | Activity ([3]; erythrocyte, 5 min, 100 µM) | hemolysis at 5 min, 100 µM ([3]; mouse erythrocytes, read-out: Activity) [%]
CO[C@H]1[C@H](O[C@H]2CC[C@@]3(C)[C@H]([C@H]2O)[C@H](O)C[C@]2(O)[C@@H]3CC[C@]3(C)[C@@H]([C@H](C)CC[C@H](O[C@@H]4O[C@@H](CO)[C@H](O)[C@H]4O)C(C)C)C[C@H](O)[C@H]32)OC[C@@H](OC)[C@@H]1O [LAEVIUSCOLOSIDE G] | 130 | – | – | –
CO[C@@H]1[C@@H](OC)[C@H](O[C@@H]2C=C3[C@H](O)C[C@@]4(O)[C@@H]5[C@@H](O)[C@H](O)[C@H]([C@H](C)/C=C/C(C)CCO)[C@@]5(C)CC[C@@H]4[C@@]3(C)CC2)OC[C@H]1O (some centres undefined) | 80 | 100 | – | –
C[C@H](CC[C@@H](O)C(C)(C)O)[C@H]1C[C@@H](O)[C@@H]2[C@]1(C)CC[C@@H]1[C@@]3(C)CC[C@H](O)[C@H](O)[C@@H]3[C@H](O)C[C@]12O | 210 | – | Not Active | –
CC(C)[C@@H](O)CC[C@@H](C)[C@H]1C[C@@H](O)[C@@H]2[C@]1(C)CC[C@@H]1[C@@]3(C)CC[C@H](O)[C@H](O)[C@@H]3[C@H](O)C[C@]12O | 53 | – | – | 100
CO[C@@H]1[C@@H](OC)[C@H](O[C@@H]2C=C3[C@H](O)C[C@@]4(O)[C@@H]5[C@@H](O)[C@H](O)[C@H]([C@H](C)/C=C/[C@@H](C)[C@H](C)CO)[C@@]5(C)CC[C@@H]4[C@@]3(C)CC2)OC[C@H]1O [HENRICIOSIDE H2] | 120 | 70 | – | –
